# Laboratory results taken from patent US9492460B2, “Carbazole compounds useful as bromodomain inhibitors” (Bristol-Myers Squibb Company, priority 2013, dated 2016).
# Biological target: T1, bromodomain BRD4 (44-168), BRD4 (333-460), and BRD4 (1-477 or 44-460) (Homo sapiens, UniProt O60885)
# T1 construct: BRD4(44-168), BRD4(333-460), BRD4(44-460), BRD4(1-477), O60885-1; fused on or other part: N-terminal BirA biotinylation motif, biotinylated; The TVMV-cleavable His6 tag is removed, except in some BRD4(44-460) runs detected with anti-His terbium cryptate
# Assay: Time Resolved Fluorescence Resonance Energy Transfer (TR-FRET) binding assay
# Conditions: one of the FRET assays described
row,Structure (SMILES),IC50 [µM]
1,"Cc1noc(C)c1-c1cc(C(N)=O)c2c3ccc(C(C)(C)O)cc3n(C(c3ccccc3)C3CCOCC3)c2c1 (single isomer, unassigned) [Example 199]",< 0.05
2,Cc1noc(C)c1-c1cc(C(N)=O)c2c3cc(C(=O)N4CC(C)OC(C)C4)ccc3n(Cc3cccc(Cl)c3)c2c1 (centres unmarked) [Example 34],< 0.05
3,"CNC(=O)c1cc(-c2c(C)noc2C)cc2c1c1cc(N(C)C(C)=O)ccc1n2Cc1ccccc1 [Example 132, 6-(acetyl(methyl)amino)-9-benzyl-2-(3,5-dimethyl-4-isoxazolyl)-N-methyl-9H-carbazole-4-carboxamide]",< 0.05
4,"Cc1noc(C)c1-c1cc(C(N)=O)c2c3cc(NCC#N)ccc3n(Cc3ccccc3)c2c1 [Example 138, 9-benzyl-6-((cyanomethyl)amino)-2-(3,5-dimethyl-4-isoxazolyl)-9H-carbazole-4-carboxamide]",< 0.05
5,"Cc1noc(C)c1-c1cc(C(N)=O)c2c3cc(N4CCCOC4=O)ccc3n(Cc3ccc(F)cc3)c2c1 [Example 151, 2-(3,5-dimethyl-4-isoxazolyl)-9-(4-fluorobenzyl)-6-(2-oxo-1,3-oxazinan-3-yl)-9H-carbazole-4-carboxamide]",< 0.05
6,"CC(=O)N(CCF)c1ccc2c(c1)c1c(C(N)=O)cc(-c3c(C)noc3C)cc1n2Cc1ccccc1 [Example 134, 6-(acetyl(2-fluoroethyl)amino)-9-benzyl-2-(3,5-dimethyl-4-isoxazolyl)-9H-carbazole-4-carboxamide]",< 0.05
7,CNC(=O)c1cc(-c2c(C)noc2C)cc2c1c1cc(C(=O)N3CC(F)C3)ccc1n2Cc1ccc(Cl)cc1F [Example 110],< 0.05
8,"Cc1noc(C)c1-c1cc(C(N)=O)c2c3cc(N4CCCCS4(=O)=O)ccc3n(Cc3ccc(F)cc3)c2c1 [Example 175, 2-(3,5-dimethyl-4-isoxazolyl)-6-(1,1-dioxido-1,2-thiazinan-2-yl)-9-(4-fluorobenzyl)-9H-carbazole-4-carboxamide]",< 0.05
9,Cc1noc(C)c1-c1cc(C(N)=O)c2c3cc(C(=O)N4CCO[C@@H](C)C4)ccc3n(Cc3ccccc3)c2c1 [Example 57],< 0.05
10,"CCNC(=O)c1cc(-c2c(C)noc2C)cc2c1c1cc(N3CCCOC3=O)ccc1n2Cc1ccc(Cl)cc1 [Example 166, 9-(4-chlorobenzyl)-2-(3,5-dimethyl-4-isoxazolyl)-N-ethyl-6-(2-oxo-1,3-oxazinan-3-yl)-9H-carbazole-4-carboxamide]",< 7.5
11,"Cc1noc(C)c1-c1cc(C(N)=O)c2c3cc(C(=O)N4CC(F)(F)C4)ccc3n(C(C)c3ccccc3)c2c1 (racemic) [Example 96, 6-((3,3-difluoro-1-azetidinyl)carbonyl)-2-(3,5-dimethyl-4-isoxazolyl)-9-(1-phenylethyl)-9H-carbazole-4-carboxamide]",< 0.05
12,Cc1noc(C)c1-c1ccc2c3cc(C(=O)N4CC(C)OC(C)C4)ccc3n(CC(F)F)c2c1 (centres unmarked) [Example 7],< 0.5
13,"Cc1noc(C)c1-c1cc(C(N)=O)c2c3cc(N)ccc3n(Cc3ccccc3)c2c1 [Example 135, 6-amino-9-benzyl-2-(3,5-dimethyl-4-isoxazolyl)-9H-carbazole-4-carboxamide]",< 0.05
14,Cc1noc(C)c1-c1cc(C(N)=O)c2c3cc(C(=O)N4CCC4)ccc3n(Cc3ccccc3)c2c1 [Example 71],< 0.05
15,Cc1noc(C)c1-c1cc(C(N)=O)c2c3cc(C(=O)N4CC(F)C4)ccc3n(Cc3ccc(F)cc3)c2c1 [Example 93],< 0.05
16,Cc1noc(C)c1-c1cc(C(N)=O)c2c3cc(C(=O)N4CC(C)OC(C)C4)ccc3n(Cc3ccc(F)cc3)c2c1 (centres unmarked) [Example 32],< 0.05
17,Cc1noc(C)c1-c1ccc2c3cc(C(=O)N4CC(C)OC(C)C4)ccc3n(Cc3ccccc3Cl)c2c1 (centres unmarked) [Example 11],< 0.5
18,"Cc1noc(C)c1-c1cc(C(N)=O)c2c3cc(C(=O)N4CC(F)C4)ccc3n(C(C)c3ccccc3)c2c1 (centres unmarked) [Example 85, 2-(3,5-dimethyl-4-isoxazolyl)-6-((3-fluoro-1-azetidinyl)carbonyl)-9-(1-phenylethyl)-9H-carbazole-4-carboxamide]",< 0.05
19,"Cc1noc(C)c1-c1cc(C(N)=O)c2c3cc(N4CCCOC4=O)ccc3n(C(C)c3ccccc3)c2c1 (centres unmarked) [Example 158, 2-(3,5-dimethyl-4-isoxazolyl)-6-(2-oxo-1,3-oxazinan-3-yl)-9-(1-phenylethyl)-9H-carbazole-4-carboxamide]",< 0.05
20,"Cc1noc(C)c1-c1cc(C(N)=O)c2c3ccc(C(C)(C)O)c(F)c3n(C(CCC(F)(F)F)c3ccccc3)c2c1 (single isomer, unassigned) [Example 231, 2-(dimethyl-1,2-oxazol-4-yl)-8-fluoro-7-(2-hydroxypropan-2-yl)-9-[4,4,4-trifluoro-1-phenylbutyl]-9H-carbazole-4-carboxamide]",< 0.05
21,COc1cccc(Cn2c3ccc(C(=O)N4CC(C)OC(C)C4)cc3c3ccc(-c4c(C)noc4C)cc32)c1 (centres unmarked) [Example 14],< 0.5
22,"Cc1noc(C)c1-c1cc(C(N)=O)c2c3ccc(C(C)(C)O)c(F)c3n(C(CCC(F)(F)F)c3ccccc3)c2c1 (single isomer, unassigned) [Example 230, 2-(dimethyl-1,2-oxazol-4-yl)-8-fluoro-7-(2-hydroxypropan-2-yl)-9-[4,4,4-trifluoro-1-phenylbutyl]-9H-carbazole-4-carboxamide]",< 0.05
23,"Cc1noc(C)c1-c1cc(C(N)=O)c2c3cc(C(=O)N4CC[C@H](F)C4)ccc3n(Cc3c(F)cccc3F)c2c1 [Example 79, 9-(2,6-difluorobenzyl)-2-(3,5-dimethyl-4-isoxazolyl)-6-(((3S)-3-fluoro-1-pyrrolidinyl)carbonyl)-9H-carbazole-4-carboxamide]",< 0.05
24,"Cc1noc(C)c1-c1ccc2c(c1)[nH]c1ccc(C(=O)N3CCOCC3)cc12 [Example 1, 2-(3,5-dimethyl-4-isoxazolyl)-6-(4-morpholinylcarbonyl)-9H-carbazole]",< 0.5
25,"Cc1noc(C)c1-c1cc(C#N)c2c3cc(C(=O)N4CC(F)C4)ccc3n(Cc3cccc(F)c3)c2c1 [Example 121, 2-(3,5-dimethyl-4-isoxazolyl)-6-((3-fluoro-1-azetidinyl)carbonyl)-9-(3-fluorobenzyl)-9H-carbazole-4-carbonitrile]",< 0.5
26,Cc1noc(C)c1-c1cc(C(N)=O)c2c3cc(C(=O)N4CCCOCC4)ccc3n(Cc3ccccc3)c2c1 [Example 56],< 0.05
27,"Cc1noc(C)c1-c1cc(C(N)=O)c2c3ccc(C(C)(C)O)cc3n(C(c3ccccc3)C3(F)CCC3)c2c1 (single isomer, unassigned) [Example 221, 2-(Dimethyl-1,2-oxazol-4-yl)-9-[(1-fluorocyclobutyl)(phenyl)methyl]-7-(2-hydroxypropan-2-yl)-9H-carbazole-4-carboxamide]",< 0.05
28,CNC(=O)c1cc(-c2c(C)noc2C)cc2c1c1cc(C(=O)N3CC(F)C3)ccc1n2Cc1c(F)cccc1F [Example 105],< 0.05
29,"CCCNC(=O)c1cc(-c2c(C)noc2C)cc2c1c1cc(C(=O)N3CC(F)C3)ccc1n2Cc1ccc(F)cc1 [Example 124, 2-(3,5-dimethyl-4-isoxazolyl)-6-((3-fluoro-1-azetidinyl)carbonyl)-9-(4-fluorobenzyl)-N-propyl-9H-carbazole-4-carboxamide]",< 0.05
